pIC50: −log10 of the molar value. Active and inactive are the calls of the source. No cut-off for these calls is given here.
Assays:
[1] = Acute toxicity in Kunming mouse assessed as animal death at 250 mg/kg, po measured after 14 days; format: organism-based; conditions: in vivo, 336 h, time 14 day
BV-2 [2] = experiment: Anti-neuroinflammatory activity against LPS-stimulated C57BL/6 mouse BV-2 cells assessed as inhibition of NO release at 30 to 60 uM preincubated with compound for 4 hrs followed by LPS addition and measured after 24 hrs by Griess reagent based assay; format: functional, cell-based; conditions: dose 30-60 µM, time 28.0 hrs
[3] = Acute toxicity in Kunming mouse assessed as histological abnormalities in kidney at 250 mg/kg, po measured after 14 days by H and E staining based analysis; format: organism-based; conditions: in vivo, 336 h, time 14 day
BV-2 [4] = experiment: Inhibition of IkappaB phosphorylation in LPS-stimulated C57BL/6 mouse BV-2 cells at 30 to 60 uM preincubated with compound for 4 hrs followed by LPS stimulation by Western blot analysis; format: cell-based; conditions: dose 30-60 µM
BV-2 [5] = experiment: Anti-neuroinflammatory activity against LPS-stimulated C57BL/6 mouse BV-2 cells assessed as downregulation of COX-2 protein expression level by Western blot analysis; format: functional, cell-based; conditions: dose 30-60 µM
BV-2 [6] = experiment: Anti-neuroinflammatory activity against LPS-stimulated C57BL/6 mouse BV-2 cells assessed as downregulation of iNOS protein expression level by Western blot analysis; format: functional, cell-based; conditions: dose 30-60 µM
[7] = Acute toxicity in Kunming mouse assessed as histological abnormalities in liver at 250 mg/kg, po measured after 14 days by H and E staining based analysis; format: organism-based; conditions: in vivo, 336 h, time 14 day
BV-2 [8] = experiment: Anti-neuroinflammatory activity against LPS-stimulated C57BL/6 mouse BV-2 cells assessed as decrease in IL-1beta mRNA expression level at 30 to 60 uM preincubated with compound for 4 hrs followed by LPS addition and measured after 24 hrs by RT-PCR analysis; format: functional, cell-based; conditions: dose 30-60 µM, time 28.0 hrs
BV-2 [9] = experiment: Anti-neuroinflammatory activity against LPS-stimulated C57BL/6 mouse BV-2 cells assessed as decrease in TNF-alpha expression level preincubated with compound for 4 hrs followed by LPS addition and measured after 24 hrs by ELISA; format: functional, cell-based; conditions: dose 30-60 µM, time 28.0 hrs
[10] = Acute toxicity in po dosed Kunming mouse assessed as lethal dose measured after 14 days; format: organism-based; conditions: in vivo, time 14 day
[11] = Acute toxicity in Kunming mouse assessed as animal death at 325 to 928 mg/kg, po measured after 14 days; format: organism-based; conditions: in vivo, 336 h, dose 325-928 mg/kg, time 14 day
BV-2 [12] = experiment: Inhibition of NFkappaB p65 nuclear translocation in LPS-stimulated C57BL/6 mouse BV-2 cells at 30 to 60 uM preincubated with compound for 4 hrs followed by LPS stimulation by Western blot analysis; format: cell-based; conditions: dose 30-60 µM
BV-2 [13] = experiment: Anti-neuroinflammatory activity against LPS-stimulated C57BL/6 mouse BV-2 cells assessed as decrease in TNF-alpha mRNA expression level at 30 to 60 uM preincubated with compound for 4 hrs followed by LPS addition and measured after 24 hrs by RT-PCR analysis; format: functional, cell-based; conditions: dose 30-60 µM, time 28.0 hrs
BV-2 [14] = experiment: Anti-neuroinflammatory activity against LPS-stimulated C57BL/6 mouse BV-2 cells assessed as inhibition of NO release preincubated with compound for 4 hrs followed by LPS addition and measured after 24 hrs by Griess reagent based assay; format: functional, cell-based; conditions: C57BL/6, BV-2
BV-2 [15] = experiment: Anti-neuroinflammatory activity against LPS-stimulated C57BL/6 mouse BV-2 cells assessed as downregulation of COX-2 mRNA expression level at 30 to 60 uM preincubated with compound for 4 hrs followed by LPS addition and measured after 24 hrs by RT-PCR analysis; format: functional, cell-based; conditions: dose 30-60 µM, time 28.0 hrs
BV-2 [16] = experiment: Anti-neuroinflammatory activity against LPS-stimulated C57BL/6 mouse BV-2 cells assessed as decrease in IL-1beta expression level preincubated with compound for 4 hrs followed by LPS addition and measured after 24 hrs by ELISA; format: functional, cell-based; conditions: dose 30-60 µM, time 28.0 hrs
BV-2 [17] = experiment: Anti-neuroinflammatory activity against LPS-stimulated C57BL/6 mouse BV-2 cells assessed as downregulation of iNOS mRNA expression level at 30 to 60 uM preincubated with compound for 4 hrs followed by LPS addition and measured after 24 hrs by RT-PCR analysis; format: functional, cell-based; conditions: dose 30-60 µM, time 28.0 hrs
BV-2 [18] = experiment: Anti-neuroinflammatory activity against LPS-stimulated C57BL/6 mouse BV-2 cells assessed as decrease in IL-6 expression level preincubated with compound for 4 hrs followed by LPS addition and measured after 24 hrs by ELISA; format: functional, cell-based; conditions: dose 30-60 µM, time 28.0 hrs
BV-2 [19] = experiment: Anti-neuroinflammatory activity against LPS-stimulated C57BL/6 mouse BV-2 cells assessed as decrease in IL-6 mRNA expression level at 30 to 60 uM preincubated with compound for 4 hrs followed by LPS addition and measured after 24 hrs by RT-PCR analysis; format: functional, cell-based; conditions: dose 30-60 µM, time 28.0 hrs
[20] = Acute toxicity in Kunming mouse assessed as histological abnormalities in spleen at 250 mg/kg, po measured after 14 days by H and E staining based analysis; format: organism-based; conditions: in vivo, 336 h, time 14 day
[21] = Acute toxicity in Kunming mouse assessed as histological abnormalities in lung at 250 mg/kg, po measured after 14 days by H and E staining based analysis; format: organism-based; conditions: in vivo, 336 h, time 14 day
[22] = Cytotoxicity against C57BL/6 mouse BV-2 cells assessed as survival rate at 30 uM incubated for 24 hrs by MTT assay relative to control; format: toxicity, cell-based; conditions: read-out: Survival
BV-2 [23] = experiment: Downregulation of TLR4 protein expression in C57BL/6 mouse BV-2 cells at 30 to 60 uM preincubated with compound for 4 hrs followed by LPS stimulation by Western blot analysis; format: functional, cell-based; conditions: dose 30-60 µM
BV-2 [24] = experiment: Downregulation of MyD88 protein expression in C57BL/6 mouse BV-2 cells at 30 to 60 uM preincubated with compound for 4 hrs followed by LPS stimulation by Western blot analysis; format: functional, cell-based; conditions: dose 30-60 µM
BV-2 [25] = experiment: Anti-neuroinflammatory activity against LPS-stimulated C57BL/6 mouse BV-2 cells assessed as inhibition of NO release at 30 uM preincubated with compound for 4 hrs followed by LPS addition and measured after 24 hrs by Griess reagent based assay relative to control; format: functional; conditions: C57BL/6, BV-2, time 28 hrs
[26] = Acute toxicity in Kunming mouse assessed as histological abnormalities in heart at 250 mg/kg, po measured after 14 days by H and E staining based analysis; format: organism-based; conditions: in vivo, 336 h, time 14 day
BV-2 [27] = experiment: Cytotoxicity against C57BL/6 mouse BV-2 cells assessed as effect on cell viability at 30 to 60 uM incubated for 24 hrs by MTT assay; format: toxicity, cell-based; conditions: bv-2, 24 h, dose 30-60 µM

With `CCN1C[C@]2(OC(=O)c3ccccc3NC(=O)S(=O)(=O)c3cccc(F)c3)CC[C@H](OC)[C@]34C1[C@@H](C[C@H]23)[C@@]1(O)C[C@H](OC)[C@H]2C[C@@H]4[C@]1(O)[C@H]2OC` the Activity [1] was “Non-toxic”, the Activity (BV-2 [2]) was “Active” and the Activity [3] was “Non-toxic”. For the same compound, the inhibition (BV-2 [4]) was “Active”, the Activity (BV-2 [5]) was “Dose-dependent-effect” and the Activity (BV-2 [6]) was “Dose-dependent-effect”. For the same compound, the Activity [7] was “Non-toxic”, the Activity (BV-2 [8]) was “Active” and the Activity (BV-2 [9]) was “Dose-dependent-effect”. For the same compound, the LD50 at 336 h [10] was 508 mg/kg, the Activity [11] was “Toxic” and the inhibition (BV-2 [12]) was “Active”. The Activity (BV-2 [13]) was “Active”, the pIC50 (BV-2 [14]) was 5.00 and the Activity (BV-2 [15]) was “Active”. The Activity (BV-2 [16]) was “Dose-dependent-effect”, the Activity (BV-2 [17]) was “Active” and the Activity (BV-2 [18]) was “Dose-dependent-effect”. The Activity (BV-2 [19]) was “Active”, the Activity [20] was “Non-toxic” and the Activity [21] was “Non-toxic”. For the same compound, the viability at 24 h, 30 µM [22] was 107%, the Activity (BV-2 [23]) was “Active” and the Activity (BV-2 [24]) was “Active”. The inhibition at 30 µM (BV-2 [25]) was 85.8%, the Activity [26] was “Non-toxic” and the Activity (BV-2 [27]) was “Non-toxic”.

Reference: ChEMBL document CHEMBL6078668, “Synthesis and biological evaluation of lappaconitine analogues as potential anti-neuroinflammatory agents by side chain modification and scaffold hopping strategy” (Bioorg Med Chem, 2025)
